Results taken from PubChem BioAssay AID179 (DTP/NCI, 2004).
Calls of active or inactive are those of the source.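 Rule for the calls: active = compounds giving half or more protection of infected cells from virus-caused growth loss, again on retest; inactive = the rest.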

Tested on: CEM cells HIV-1 protection, formazan growth assay
Assay: NCI AIDS Antiviral Assay
Settings: for IC50: measured here: growth of uninfected CEM cells
Outline: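 CEM (human) cells, HIV-1 infected vs uninfected, 5-point dosing, formazan growth read-out. Retest threshold 50% protection.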

With `CC[n+]1cnc(N)c2c(-c3ccc(Cl)cc3)cn(-c3ccc(C)cc3)c21` the EC50 was > 200 µM and the IC50 was 12.3 µM.
In the case of `CC(C)(C)COC(=O)NS(=O)(=O)Nc1ccccc1`, the EC50 is reported as > 200 µM and the IC50 is reported as > 200 µM.
`Cc1ccc(C)c(NC(=O)c2cc(-c3ccc([N+](=O)[O-])cc3)nc(N)n2)c1` was tested, and the EC50 was > 70.8 µM and the IC50 was > 70.8 µM.
With `O=C(O)CC(c1ccccc1)C(CC(=O)O)c1ccccc1` (stereo not drawn) the EC50 was > 437 µM and the IC50 was > 437 µM.
`OCc1c(-c2cccc3ccccc23)sc(-c2cccc3ccccc23)c1CO` was tested, and the outcome was “inactive”.
`CCN(CCCCOC(=O)c1ccc(OC)c(OC)c1)C(C)Cc1ccc(OC)cc1` (stereo not drawn) was tested, and the EC50 was > 200 µM and the IC50 was 102 µM.
For `Cc1ccc(C(=O)O/N=C2/CCCCC2CN(C)C)cc1` (stereo not drawn), the outcome was “inactive”.
With `COc1ccccc1NC(=S)Nc1cc(C)cc(C)n1` the EC50 was > 200 µM and the IC50 was > 200 µM.
For `CN1C(=O)C2(Cc3cn(C45CC67SSC(CO)(C(=O)N6C4Nc4ccccc45)N(C)C7=O)c4ccccc34)SSC1(CO)C(=O)N2C` (stereo not drawn), the EC50 was > 0.2 µM and the IC50 was 0.00661 µM.
For `CN1CC2(CO)C(c3ccccn3)N(C)C(c3ccccn3)C(CO)(C1)C2O` (stereo not drawn), the EC50 was > 115 µM and the IC50 was > 115 µM.
`NC(=S)Nc1[nH]c(=S)nc2c1c(-c1ccccc1)cn2C(=O)c1ccccc1` was tested, and the EC50 was > 25.1 µM and the IC50 was > 25.1 µM.
For `C=C(Nc1ccc(OC)cc1OC)C(=O)Cc1cccc[n+]1[O-]`, the EC50 was > 794 µM and the IC50 was > 794 µM.
Work on `C#CC1(O)CCC2C3CCC4=C(CCC(=O)C4)C3CCC21C` (stereo not drawn) yielded an EC50 of 30.9 µM and an IC50 of 166 µM.
With `O=C1OC(c2ccc(Cl)c3ccccc23)c2ccccc21` (stereo not drawn) the EC50 was > 17.8 µM and the IC50 was > 17.8 µM.
For `O=P(O)(O)c1ccc2c(c1)OCCOCCOCCOCCO2`, the EC50 was > 200 µM and the IC50 was > 200 µM.
`CC1(C)CC(=O)c2c(nc3c(ccc4ccccc43)c2-c2ccc(NC(=O)CCC(=O)Nc3ccc(-c4c5c(nc6c4ccc4ccccc46)CC(C)(C)CC5=O)cc3)cc2)C1` was tested, and the EC50 was > 100 µM and the IC50 was > 100 µM.
In the case of `Cc1ccc(NC(=O)CSc2nnc(-c3ccc(N=Cc4ccc(Cl)cc4)cc3)o2)cc1`, the EC50 is reported as > 282 µM and the IC50 is reported as 145 µM.
With `COc1ccc(/C=C/C(=O)c2sc(-c3cccnc3)nc2C)cc1` the EC50 was > 21.4 µM and the IC50 was > 21.4 µM.
`Cc1cccc(C)c1NC(=O)C(=O)C(C(=O)c1ccccc1-c1ccccc1)C1OC(=O)c2ccccc21` (stereo not drawn) was tested, and the EC50 was > 135 µM and the IC50 was 24.5 µM.
`Oc1ccc(Cl)cc1/C=N/Nc1nnc(N/N=C/c2cc(Cl)ccc2O)c2ccccc12` was tested, and the EC50 was > 200 µM and the IC50 was 1 µM.
With `Cc1cccc(C(C)C)c1N1C(=O)C(=O)C(c2nc3ccccc3o2)C(=O)C1=O` the EC50 was > 13.5 µM and the IC50 was > 13.5 µM.
For `CN=C(NC)NCc1ccccc1`, the EC50 was > 200 µM and the IC50 was 178 µM.
With `CCOC(=O)C(=CN1CC(=O)NC1=S)C(=O)OCC` the EC50 was > 200 µM and the IC50 was > 200 µM.
`CC(C)[Si]1(C(C)C)OCC2OC(n3c(C(=O)c4ccccc4)cc(=O)[nH]c3=O)CC2O[Si](C(C)C)(C(C)C)O1` (stereo not drawn) was tested, and the EC50 was > 200 µM and the IC50 was 9.12 µM.
`Cc1ccsc1/C=N/Nc1nc2ccccc2s1` was tested, and the EC50 was > 200 µM and the IC50 was 105 µM.
With `O=C(O)c1c(CC(Cc2ccc3c(c2)CCCC3)C(=O)O)ccc2c1CCCC2` (stereo not drawn) the EC50 was > 200 µM and the IC50 was 141 µM.
For `O=C(Nc1ccccc1)N(CCN(Cc1ccccc1)C(=O)Nc1ccccc1)CCN(Nc1ccccc1)C(=O)Nc1ccccc1`, the EC50 was > 200 µM and the IC50 was > 200 µM.
`CCOP(=O)(OCC)C(C(=O)OC)C(=O)C(=O)Nc1c(C)cc(Br)cc1C` (stereo not drawn) was tested, and the EC50 was > 537 µM and the IC50 was > 537 µM.
`O=C1/C(=C2\Sc3c(ccc(Cl)c3Cl)C2=O)Sc2c1ccc(Cl)c2Cl` was tested, and the EC50 was > 200 µM and the IC50 was > 200 µM.
For `C=C1C(=O)OC2/C=C(\C)C3OC3/C=C(/C(=O)OC)C(OC(C)=O)C(OC(=O)C(C)(O)C(C)OC(C)=O)C12` (stereo not drawn), the EC50 was > 129 µM and the IC50 was 0.832 µM.
